Data reported in PMC12363342, “Investigating the N-terminal linker histone H1 subtypes as substrates for JmjC lysine demethylases” (RSC Chemical Biology, 2025).
Square brackets hold non-standard residues; d marks the D form. Ends that are not written are not given here. Lys(Me3) = C[N+](C)(C)CCCC[C@H](N)C(=O)O; Lys(Me2) = CN(C)CCCC[C@H](N)C(=O)O

Key:
KDM3A = assay: LC-MS demethylation activity assay, KDM3A; type: biochemical, human; settings: 2 μM KDM, 10 μM H1/H3 peptide, 10 μM FAS, 100 μM LAA, 20 μM 2OG, 50 mM HEPES pH 7.5, 2 h, room temperature
Experimental: (§1) The substrate specificity of JmjC KDMs for H1 was examined using liquid chromatography coupled to mass spectrometry (LC-MS) assays. The H1 peptides (10 μM) were incubated with the recombinant KDM (2 μM) in HEPES buffer at pH 7.5 at room temperature for 2 h, in the presence of ferrous(II) ammonium sulfate (FAS, 10 μM), sodium ascorbate (LAA, 100 μM) and 2OG (20 μM), and then quenched with formic acid. N^ε-Methylated H3K9 and H3K36 peptides were used as positive controls (Fig. 3–5 and Fig. S2–S6).[26]
(§2) The catalytic domains of the JmjC KDMs used were recombinantly produced as reported in either Escherichia coli (KDM4AM1-L359,[38] KDM4DM1-L359,[39] KDM4EM1-R336,[30] KDM6BD1141–E1590[40] and KDM3CL2157-L2500) or Sf9 cells (KDM3AT515–S1317, KDM3B882–1761, and KDM5DM1-D775) as N-terminally His6-tagged proteins. […] To produce proteins, DNA sequences encoding for KDM3A, KDM3B and KDM5D were inserted into the pFB-LIC vector, containing a TEV-protease cleavable N-terminal 6x-histidine tag via ligation independent cloning (LIC). The resultant plasmids were transformed into baculovirus and Sf9 cells ([…]) which were infected with the virus stock. The cells were grown at 27 °C and 90 rpm for 70 h. Cells were then harvested and suspended in 100 mL of lysis buffer (50 mM HEPES-NaOH, pH 7.4, 500 mM NaCl, 20 mM imidazole, 0.5 mM Tris (2-carboxyethyl)phosphine (TCEP), 5% (v/v) glycerol). […] The supernatant was loaded onto a Ni-NTA gravity column, washed with 10 column volume of lysis buffer and eluted using the elution buffer (50 mM HEPES-NaOH, pH 7.4, 500 mM NaCl, 300 mM imidazole, 0.5 mM TCEP, 5% (v/v) glycerol). The eluted protein was further purified using S200 gel filtration column chromatography (50 mM HEPES-NaOH, pH 7.4, 150 mM NaCl, 0.5 mM TCEP and 5% glycerol). Protein purity was analysed by SDS-PAGE and further confirmed by mass spectrometry. Selected fractions were pooled, concentrated and stored at −80 °C.
(§3) All reagents were purchased from Sigma Aldrich and were of the highest grade available. Ferrous(II) ammonium sulfate (FAS) solutions were prepared freshly by dissolving FAS to 400 mM in 20 mM HCl with subsequent dilution to 1 mM using deionized water. Fresh 2OG (10 mM) and LAA (50 mM) solutions were prepared by dissolving the solids in deionised water. All enzyme reactions were performed in 384-well plates (Greiner Bio-One) with a final reaction volume of 50 μL. Substrate mixtures contained 50 mM HEPES pH 7.5, LAA (100 μM), FAS (10 μM), 2OG (20 μM) and an H1 isoform peptide (10 μM). Reactions were initiated by the addition of enzyme to a final concentration of 2.0 μM. After 2 h, the reactions were stopped by the addition of 5 μL of 10% (v/v) LC-MS grade formic acid (Fisher Scientific) to a final concentration of 1% (v/v). Product analyses were performed by liquid chromatography-mass spectrometry (LC-MS) using an Agilent 1290 infinity II LC system equipped with an Agilent 1290 multisampler and an Agilent 1290 high speed pump and connected to an Agilent 6550 accurate mass iFunnel quadrupole time of flight (Q-TOF) mass spectrometer. 1 μL of the reaction mixture was injected onto a 1.8 μm × 2.1 × 50 mm ZORBAX RRHD Eclipse Plus C18 column (Agilent). Solvent A consisted of HPLC grade water containing 0.1% (v/v) formic acid and solvent B consisted of MeCN containing 0.1% (v/v) formic acid. Peptides were separated using a stepwise gradient (0 min – 95% solvent A, 1.0 min – 80% solvent A, 3.0 min – 45% solvent A, 4.0 min – 45% solvent A, 5.0 min – 0% solvent A, 6.0 min – 0% solvent A, 7.0 min – 95% solvent A). This was followed by a 3 min post-run with 95% solvent A to re-equilibrate the column. All flow rates were 0.2 mL min^−1. A blank injection of HPLC grade water was carried out between each sample injection.

KDM3B = assay: LC-MS demethylation activity assay, KDM3B; type: biochemical, human; settings: 2 μM KDM, 10 μM H1/H3 peptide, 10 μM FAS, 100 μM LAA, 20 μM 2OG, 50 mM HEPES pH 7.5, 2 h, room temperature
Experimental: as §1, §2, §3

KDM3C = assay: LC-MS demethylation activity assay, KDM3C; type: biochemical, human; settings: 2 μM KDM, 10 μM H1/H3 peptide, 10 μM FAS, 100 μM LAA, 20 μM 2OG, 50 mM HEPES pH 7.5, 2 h, room temperature
Experimental: as §1, §2, §3

KDM4A = assay: LC-MS demethylation activity assay, KDM4A; type: biochemical, human; settings: 10 μM FAS, 100 μM LAA, 20 μM 2OG, room temperature; for substrate conversion (demethylation) by KDM4A: 2 μM KDM4A, 10 μM peptide, HEPES pH 7.5, 2 h
Experimental: as §1, §2, §3

KDM4D = target: T1, KDM4D (Homo sapiens, UniProt Q6B0I6); assay: LC-MS demethylation activity assay, KDM4D; type: biochemical; settings: room temperature
T1 construct: KDM4AM1-L359,[38]; KDM4DM1-L359,[39]; KDM4EM1-R336,[30]; His6 (N); made in house; host or cells: Escherichia coli
T1 sequence (Q6B0I6 1-359): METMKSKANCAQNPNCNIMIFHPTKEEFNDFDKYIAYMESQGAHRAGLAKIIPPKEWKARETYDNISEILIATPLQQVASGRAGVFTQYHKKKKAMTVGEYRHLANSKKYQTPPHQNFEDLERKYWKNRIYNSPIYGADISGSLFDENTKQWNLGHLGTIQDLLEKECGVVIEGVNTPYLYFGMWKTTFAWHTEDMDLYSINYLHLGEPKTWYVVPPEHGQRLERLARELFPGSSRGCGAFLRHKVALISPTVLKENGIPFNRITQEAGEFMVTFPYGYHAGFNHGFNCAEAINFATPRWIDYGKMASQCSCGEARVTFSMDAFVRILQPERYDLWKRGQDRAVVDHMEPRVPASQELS
Experimental: as §1, §2, §3

KDM4E = target: T2, KDM4E (Homo sapiens, UniProt B2RXH2); assay: LC-MS demethylation activity assay, KDM4E; type: biochemical; settings: room temperature
T2 construct: KDM4DM1-L359,[39]; KDM4EM1-R336,[30]; His6 (N); made in house; host or cells: Escherichia coli
T2 sequence (B2RXH2 1-336): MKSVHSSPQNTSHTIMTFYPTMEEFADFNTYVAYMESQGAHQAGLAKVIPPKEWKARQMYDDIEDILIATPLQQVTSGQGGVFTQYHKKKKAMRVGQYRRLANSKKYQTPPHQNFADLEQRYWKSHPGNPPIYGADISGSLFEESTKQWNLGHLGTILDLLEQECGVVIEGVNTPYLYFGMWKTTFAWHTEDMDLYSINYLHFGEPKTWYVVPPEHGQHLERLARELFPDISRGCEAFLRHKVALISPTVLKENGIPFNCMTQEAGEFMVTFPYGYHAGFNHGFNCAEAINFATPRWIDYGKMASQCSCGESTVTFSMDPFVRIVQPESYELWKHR
Experimental: as §1, §2, §3

KDM5D = assay: LC-MS demethylation activity assay, KDM5D; type: biochemical, human; settings: 2 μM KDM, 10 μM H1/H3 peptide, 10 μM FAS, 100 μM LAA, 20 μM 2OG, 50 mM HEPES pH 7.5, 2 h, room temperature
Experimental: as §1, §2, §3

KDM6B = assay: LC-MS demethylation activity assay, KDM6B; type: biochemical, human; settings: 2 μM KDM, 10 μM H1/H3 peptide, 10 μM FAS, 100 μM LAA, 20 μM 2OG, 50 mM HEPES pH 7.5, 2 h, room temperature
Experimental: as §1, §2, §3

[1] = T (tri-) initial methylation state
[2] = 2 μM KDM4D, 10 μM peptide, standard conditions, 2 h
[3] = 2 μM KDM, 10 μM H1/H3 peptide, 10 μM FAS, 100 μM LAA, 20 μM 2OG, 50 mM HEPES pH 7.5, 2 h, T (tri-) initial methylation state
[4] = D (di-) initial methylation state
[5] = 2 μM KDM, 10 μM H1/H3 peptide, 10 μM FAS, 100 μM LAA, 20 μM 2OG, 50 mM HEPES pH 7.5, 2 h, D (di-) initial methylation state
[6] = M (mono-) initial methylation state
[7] = 2 μM KDM, 10 μM H1/H3 peptide, 10 μM FAS, 100 μM LAA, 20 μM 2OG, 50 mM HEPES pH 7.5, 2 h, M (mono-) initial methylation state

Question: What does the source list for “KKKAT[Lys(Me3)]KAAGAGAAK [Peptide H1.5K25me3, 15-mer linker histone H1.5 residues 20-34 peptide, tri-methylated K25]”?
Answer: KDM3A demethylation activity, T (KDM3A; [1]): ● [red]; KDM3B demethylation activity, T (KDM3B; [1]): ● [red]; KDM3C demethylation activity, T (KDM3C; [1]): ● [red]; substrate conversion (demethylation) by KDM4A (KDM4A): < 10%; KDM4A demethylation activity, T (KDM4A; 2 μM KDM, 10 μM H1/H3 peptide, 50 mM HEPES pH 7.5, 2 h, T (tri-) initial methylation state): ● [yellow] (yellow dots indicate moderate demethylation (<50% conversion)); KDM4D demethylation activity, in words (KDM4D; [2]): No activity was observed; di-methylated product formed by KDM4D (KDM4D; [2]): < 5%; KDM4D demethylation activity, T (KDM4D; [3]): ● [red]; KDM4E demethylation activity, T (KDM4E; [3]): ● [red]; KDM5D demethylation activity, T (KDM5D; [1]): ● [red]; KDM6B demethylation activity, T (KDM6B; [1]): ● [red]

Question: For “KKKA[Lys(Me2)]KAGATAGKRK [Peptide H1.3K24me2, 15-mer linker histone H1.3 residues 20-34 peptide, di-methylated K24]”, which “KDM3A demethylation activity, D” value (KDM3A; [4]) is on record?
Answer: Its value is “● [red]”.

Question: And the “KDM3B demethylation activity, D” value (KDM3B; [4])?
Answer: The value was “● [red]”.

Question: What about the “KDM3C demethylation activity, D” value (KDM3C; [4]) of the same substance?
Answer: The value was “● [red]”.

Question: What about the “substrate conversion (demethylation) by KDM4A” value (KDM4A) of the same substance?
Answer: The value was about 23%.

Question: And the “KDM4A demethylation activity, D” value (KDM4A; 2 μM KDM, 10 μM H1/H3 peptide, 50 mM HEPES pH 7.5, 2 h, D (di-) initial methylation state)?
Answer: The value was “● [yellow] (yellow dots indicate moderate demethylation (<50% conversion))”.

Question: What about the “mono-methylated product formed by KDM4D” value (KDM4D; [2]) of the same substance?
Answer: The value was about 53%.

Question: And the “non-methylated product formed by KDM4D” value (KDM4D; [2])?
Answer: The value was about 8%.

Question: And the “KDM4D demethylation activity, D” value (KDM4D; [5])?
Answer: The value was “● [green] (green dots indicate good demethylation (>50% conversion))”.

Question: What about the “unmethylated lysine product formed by KDM4E” value (KDM4E; 2 μM KDM4E, 10 μM peptide, standard conditions, 2 h) of the same substance?
Answer: The value was about 60%.

Question: What about the “KDM4E demethylation activity, D” value (KDM4E; [5]) of the same substance?
Answer: The value was “● [green] (green dots indicate good demethylation (>50% conversion))”.

Question: And the “KDM5D demethylation activity, D” value (KDM5D; [4])?
Answer: Its value is “● [red]”.

Question: And the “KDM6B demethylation activity, D” value (KDM6B; [4])?
Answer: Its value is “● [red]”.

Question: For “SAPATGGVKmeKPHRYRPGTVAL [Peptide H3K36me, histone H3 residues 28-48 peptide with mono-methylated K36; control, reference compound]”, which “KDM3A demethylation activity, M” value (KDM3A; [6]) is on record?
Answer: The value was “● [red]”.

Question: And the “KDM3B demethylation activity, M” value (KDM3B; [6])?
Answer: Its value is “● [red]”.

Question: And the “KDM3C demethylation activity, M” value (KDM3C; [6])?
Answer: The value was “● [red]”.

Question: What about the “KDM4A demethylation activity, M” value (KDM4A; 2 μM KDM, 10 μM H1/H3 peptide, 50 mM HEPES pH 7.5, 2 h, M (mono-) initial methylation state) of the same substance?
Answer: Its value is “● [red]”.

Question: What about the “KDM4D demethylation activity, M” value (KDM4D; [7]) of the same substance?
Answer: The value was “● [red]”.

Question: And the “KDM4E demethylation activity, M” value (KDM4E; [7])?
Answer: The value was “● [red]”.

Question: And the “KDM5D demethylation activity, M” value (KDM5D; [6])?
Answer: The value was “● [red]”.

Question: And the “KDM6B demethylation activity, M” value (KDM6B; [6])?
Answer: Its value is “● [red]”.
